According to ChEMBL document CHEMBL1201862, “PubChem BioAssay data set” (2004):
One block for each compound: values may come before it. Active and inactive are the calls of the source.

Assays:
[1] = biological target: T1, Oxysterols receptor LXR-beta (Homo sapiens, UniProt P55055); experiment: LXR agonists, Gal4 luciferase reporter, dose response, counter-screen for ssDAF-12 agonist project, cell-based, luminescence, HEK293, S. stercoralis campaign (AID 720737); format: functional; settings: read-out: IC50 (the source's name)
T1 sequence (P55055 whole entry): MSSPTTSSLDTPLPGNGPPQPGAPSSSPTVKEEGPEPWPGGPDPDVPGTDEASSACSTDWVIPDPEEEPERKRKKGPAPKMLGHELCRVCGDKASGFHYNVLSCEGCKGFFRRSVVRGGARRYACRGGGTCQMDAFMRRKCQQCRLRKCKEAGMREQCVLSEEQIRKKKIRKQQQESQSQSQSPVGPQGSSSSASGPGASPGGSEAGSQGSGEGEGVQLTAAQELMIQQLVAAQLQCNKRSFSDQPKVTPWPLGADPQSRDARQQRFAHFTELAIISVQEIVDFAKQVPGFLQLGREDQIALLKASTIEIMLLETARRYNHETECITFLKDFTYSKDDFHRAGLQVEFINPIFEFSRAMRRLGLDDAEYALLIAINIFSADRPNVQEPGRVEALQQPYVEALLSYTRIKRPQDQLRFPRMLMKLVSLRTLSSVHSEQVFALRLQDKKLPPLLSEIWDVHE

[2] = Luminescence-based cell-based high throughput dose response assay to identify activators of the DAF-12 from the parasite S. stercoralis (ssDAF-12).; format: functional
Genome polyprotein = Genome polyprotein (dengue virus type 2, UniProt P29990); experiment: flavivirus cap methylation enzyme inhibition – biochemical, confirmation dose response, primary screen (AID 588689); format: functional
Caspase-6 = Caspase-6 (Homo sapiens, UniProt P55212); experiment: inhibition of CASP6 peptide cleavage – biochemical, VEID-R110 fluorescence, cherry-pick, dose response (AID 720632)
[3] = biological target: T2, Polyadenylate-binding protein 1 (Homo sapiens, UniProt P11940); experiment: MLLE binding blockers, Cy5 peptide tracer – biochemical, fluorescence polarization, Cy5-PAM2 peptide, secondary, miRNA deadenylation inhibitor project, dose response (AID 602260); format: functional; settings: read-out: IC50_Mean
[4] = biological target: T2, Polyadenylate-binding protein 1; experiment: MLLE domain peptide-binding blockers, IC50 – biochemical, fluorescence polarization, FITC-PAM2 peptide, dose response (AID 602259); format: functional; settings: read-out: IC50_Mean
[5] = biological target: T3, NAD-dependent protein deacylase sirtuin-5, mitochondrial (Homo sapiens, UniProt Q9NXA8); experiment: sirtuin-5 deacylation blockers, concentration series – biochemical, fluorescence imaging, cherry-pick, set 5, dose response (AID 720591);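 also: desuccinylation of succinyl peptide AMC substrate read as fluorescence after trypsin release; potency of inhibitors that lower fluorescence and may act on trypsin instead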
[6] = biological target: T3, NAD-dependent protein deacylase sirtuin-5, mitochondrial; experiment: blockers of sirtuin-5 peptide desuccinylation – biochemical, fluorescence imaging, cherry-pick, set 6, dose response (AID 720597)
[7] = biological target: T4, Tyrosine-protein phosphatase non-receptor type 7 (Homo sapiens, UniProt P35236); experiment: HePTP tyrosine phosphatase activity blockers – biochemical, absorbance, leukemia target, primary screen (AID 521); format: functional
T4 sequence (P35236 whole entry): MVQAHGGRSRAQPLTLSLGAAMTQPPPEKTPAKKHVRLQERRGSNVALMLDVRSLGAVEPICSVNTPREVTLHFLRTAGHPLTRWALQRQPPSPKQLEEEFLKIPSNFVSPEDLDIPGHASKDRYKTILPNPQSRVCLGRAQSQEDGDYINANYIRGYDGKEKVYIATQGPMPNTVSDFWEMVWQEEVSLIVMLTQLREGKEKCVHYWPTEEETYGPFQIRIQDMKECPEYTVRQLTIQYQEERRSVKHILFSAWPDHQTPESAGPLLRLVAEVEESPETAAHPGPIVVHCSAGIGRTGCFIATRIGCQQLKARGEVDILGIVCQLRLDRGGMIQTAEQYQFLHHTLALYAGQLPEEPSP

Bcl-2-like protein 10 = biological target: T5, Bcl-2-like protein 10 (Homo sapiens, UniProt Q9HD36); experiment: Bcl-B/TR3 peptide binding disruption – biochemical, fluorescence polarization, FITC-TR3 peptide, selectivity assay for Bfl-1 inhibitor project, primary screen (AID 748);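 also: fluorescence polarization from a fluorescein-labelled TR3 peptide binding purified Bcl-B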
T5 sequence (Q9HD36 whole entry): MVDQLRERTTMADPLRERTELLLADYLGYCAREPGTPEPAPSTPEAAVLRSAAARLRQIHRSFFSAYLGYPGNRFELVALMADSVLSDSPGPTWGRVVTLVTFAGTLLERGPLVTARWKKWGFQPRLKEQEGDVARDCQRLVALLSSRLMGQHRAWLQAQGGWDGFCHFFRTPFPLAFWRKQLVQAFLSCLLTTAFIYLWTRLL

[8] = biological target: T6, Methionyl-tRNA synthetase, putative (Trypanosoma brucei brucei, UniProt Q38C91); format: functional, Trypanosoma brucei brucei strain 927/4 GUTat10.1
T6 sequence (Q38C91 whole entry): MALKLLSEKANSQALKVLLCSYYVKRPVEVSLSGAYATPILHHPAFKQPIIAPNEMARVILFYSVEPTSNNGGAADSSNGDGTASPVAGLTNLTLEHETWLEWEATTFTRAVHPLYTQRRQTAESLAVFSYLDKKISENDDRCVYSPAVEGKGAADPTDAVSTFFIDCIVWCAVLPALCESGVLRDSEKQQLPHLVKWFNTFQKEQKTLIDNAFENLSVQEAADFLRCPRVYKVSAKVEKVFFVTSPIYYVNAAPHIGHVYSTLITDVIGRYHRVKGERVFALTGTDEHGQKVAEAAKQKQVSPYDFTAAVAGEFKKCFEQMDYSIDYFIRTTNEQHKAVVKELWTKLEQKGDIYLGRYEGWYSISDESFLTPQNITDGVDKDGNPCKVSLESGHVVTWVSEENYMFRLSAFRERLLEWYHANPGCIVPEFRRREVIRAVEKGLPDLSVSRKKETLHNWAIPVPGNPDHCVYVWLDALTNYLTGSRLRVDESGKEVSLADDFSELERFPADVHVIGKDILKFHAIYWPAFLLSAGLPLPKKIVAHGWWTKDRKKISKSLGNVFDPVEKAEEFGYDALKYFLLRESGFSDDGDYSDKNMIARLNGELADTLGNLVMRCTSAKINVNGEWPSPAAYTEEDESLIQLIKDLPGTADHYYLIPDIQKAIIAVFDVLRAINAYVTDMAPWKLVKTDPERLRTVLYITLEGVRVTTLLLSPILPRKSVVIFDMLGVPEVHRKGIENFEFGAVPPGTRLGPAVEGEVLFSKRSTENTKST

[9] = Late stage counterscreen for inhibitors of Trypanosoma brucei methionyl tRNA synthetase (MetRS): Luminescence-based cell-based high throughput dose response assay to identify compounds that are cytotoxic to Jurkat human T lymphocyte cells.; format: functional
[10] = Counterscreen for inhibitors of Trypanosoma brucei methionyl tRNA synthetase (MetRS): Luminescence-based cell-based high throughput dose response assay to identify compounds that are cytotoxic to Jurkat human T lymphocyte cells.; format: functional
[11] = biological target: T6, Methionyl-tRNA synthetase, putative; format: functional, Trypanosoma brucei brucei strain 927/4 GUTat10.1; remark: listed apart in the source

T3 sequence (Q9NXA8 whole entry): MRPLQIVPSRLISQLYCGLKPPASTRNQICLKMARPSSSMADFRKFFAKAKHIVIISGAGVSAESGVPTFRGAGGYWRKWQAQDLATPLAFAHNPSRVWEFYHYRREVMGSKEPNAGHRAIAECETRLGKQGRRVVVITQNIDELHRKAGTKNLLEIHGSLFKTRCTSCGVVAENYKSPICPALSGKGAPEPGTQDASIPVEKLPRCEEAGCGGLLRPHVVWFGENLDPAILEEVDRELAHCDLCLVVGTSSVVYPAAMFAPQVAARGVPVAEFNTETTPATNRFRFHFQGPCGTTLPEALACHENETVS
T2 sequence (P11940 whole entry, the tested form may be a part): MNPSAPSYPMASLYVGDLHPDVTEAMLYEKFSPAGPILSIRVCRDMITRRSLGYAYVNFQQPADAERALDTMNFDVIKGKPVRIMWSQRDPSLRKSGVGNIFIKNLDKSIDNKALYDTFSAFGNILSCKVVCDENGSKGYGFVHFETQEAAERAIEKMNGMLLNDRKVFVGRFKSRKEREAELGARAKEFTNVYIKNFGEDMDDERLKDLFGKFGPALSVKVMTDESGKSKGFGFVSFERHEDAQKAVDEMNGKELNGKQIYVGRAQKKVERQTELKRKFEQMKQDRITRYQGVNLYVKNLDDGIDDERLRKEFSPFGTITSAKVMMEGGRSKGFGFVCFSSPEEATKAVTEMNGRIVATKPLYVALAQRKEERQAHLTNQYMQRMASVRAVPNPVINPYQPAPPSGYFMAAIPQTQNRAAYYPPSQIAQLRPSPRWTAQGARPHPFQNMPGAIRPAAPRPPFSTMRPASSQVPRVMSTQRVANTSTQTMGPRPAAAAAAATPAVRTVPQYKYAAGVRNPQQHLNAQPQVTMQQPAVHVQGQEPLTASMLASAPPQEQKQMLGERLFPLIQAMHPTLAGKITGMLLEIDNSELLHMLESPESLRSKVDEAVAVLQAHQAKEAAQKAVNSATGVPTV
Caspase-6, sequence (P55212 24-179 limits assumed): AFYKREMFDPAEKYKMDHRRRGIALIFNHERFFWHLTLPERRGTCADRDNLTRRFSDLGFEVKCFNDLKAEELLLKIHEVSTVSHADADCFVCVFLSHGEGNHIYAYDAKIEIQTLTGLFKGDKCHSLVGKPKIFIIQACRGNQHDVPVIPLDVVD
Caspase-6, sequence (P55212 194-293 limits assumed): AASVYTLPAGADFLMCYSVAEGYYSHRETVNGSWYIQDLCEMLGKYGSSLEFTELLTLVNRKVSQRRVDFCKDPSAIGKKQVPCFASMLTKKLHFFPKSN
Genome polyprotein, sequence (P29990 2492-3391 limits assumed): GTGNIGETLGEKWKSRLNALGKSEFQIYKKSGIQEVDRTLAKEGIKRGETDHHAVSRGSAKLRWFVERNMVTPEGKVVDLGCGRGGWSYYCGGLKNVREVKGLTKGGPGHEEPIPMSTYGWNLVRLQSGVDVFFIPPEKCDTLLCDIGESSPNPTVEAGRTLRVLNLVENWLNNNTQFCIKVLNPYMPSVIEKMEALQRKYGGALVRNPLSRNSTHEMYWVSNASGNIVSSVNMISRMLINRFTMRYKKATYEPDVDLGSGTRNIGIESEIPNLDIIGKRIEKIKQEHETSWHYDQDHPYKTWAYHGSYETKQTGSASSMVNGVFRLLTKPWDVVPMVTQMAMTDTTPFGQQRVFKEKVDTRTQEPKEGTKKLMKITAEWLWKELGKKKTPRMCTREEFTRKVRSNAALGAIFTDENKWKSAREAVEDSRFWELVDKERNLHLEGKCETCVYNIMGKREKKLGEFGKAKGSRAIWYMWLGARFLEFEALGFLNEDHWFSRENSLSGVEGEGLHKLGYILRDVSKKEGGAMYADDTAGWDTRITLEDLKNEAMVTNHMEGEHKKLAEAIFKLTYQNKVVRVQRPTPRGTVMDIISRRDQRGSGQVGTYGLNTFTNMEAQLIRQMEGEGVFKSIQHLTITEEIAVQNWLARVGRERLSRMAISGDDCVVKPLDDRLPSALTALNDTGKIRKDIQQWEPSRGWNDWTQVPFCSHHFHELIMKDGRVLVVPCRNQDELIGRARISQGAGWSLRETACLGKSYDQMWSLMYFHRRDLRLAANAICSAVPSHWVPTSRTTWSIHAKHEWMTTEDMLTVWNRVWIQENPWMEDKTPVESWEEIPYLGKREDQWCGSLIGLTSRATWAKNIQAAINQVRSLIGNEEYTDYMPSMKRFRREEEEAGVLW

Compound: Cc1cc(NC(=S)NC(=O)/C=C/c2ccc(S(=O)(=O)N3CCOCC3)cc2)ccc1Br
EC50 [1]: > 67.5 µM (inactive)
IC50 [2]: > 67.5 µM (inactive)

Compound: O=[N+]([O-])c1cc2ccccc2c(O)c1O
IC50 (Genome polyprotein): 7.79 µM (active)
AC50 (Caspase-6): 13.4 µM (active)
IC50 [3]: > 66 µM (inactive)
IC50 [4]: > 66 µM (inactive)

Compound: O=C(c1ccccc1F)N1C[C@H]2[C@@H](c3ccccc31)[C@@H](CO)N2CC1CCCCC1
AC50 [6]: > 30 µM (inactive)

Compound: CCc1nnc(NC(=O)CSc2nnc(-c3ccoc3C)n2CC(C)C)s1
IC50 [7]: > 100 µM (not active)

Compound: COc1ccccc1-n1c(SCC(=O)Nc2ccc(Cl)cc2)nc(=O)c(Cc2ccccc2)c1O
IC50 [8]: 5.59 µM (active)
IC50 [9]: 77.1 µM (inactive)
IC50 [10]: 74.5 µM (inactive)
IC50 [11]: 5.07 µM (active)

Results, then the compound that gave them:

AC50 [5]: 25.1 µM (active)
Compound: O=C(O)C1=C2C(=O)Nc3cccc(c32)C2(C1)C(=O)Nc1ccccc12 (stereo not given)

IC50 [7]: 30.2 µM (active)
IC50 (Bcl-2-like protein 10): 17.2 µM (active)
Compound: C/C(N)=C(/C#N)C(=O)CSc1nnc(Nc2c(C)cccc2C)s1
